According to patent publication US20240182445A1 (ONO PHARMACEUTICAL CO., LTD., priority 2019, published 2024):
pIC50: −log10 of the molar value.

Target: T1, human TREK-1 (Homo sapiens, UniProt O95069)
T1 construct: expressed in transfected cells
T1 sequence (O95069 1-426): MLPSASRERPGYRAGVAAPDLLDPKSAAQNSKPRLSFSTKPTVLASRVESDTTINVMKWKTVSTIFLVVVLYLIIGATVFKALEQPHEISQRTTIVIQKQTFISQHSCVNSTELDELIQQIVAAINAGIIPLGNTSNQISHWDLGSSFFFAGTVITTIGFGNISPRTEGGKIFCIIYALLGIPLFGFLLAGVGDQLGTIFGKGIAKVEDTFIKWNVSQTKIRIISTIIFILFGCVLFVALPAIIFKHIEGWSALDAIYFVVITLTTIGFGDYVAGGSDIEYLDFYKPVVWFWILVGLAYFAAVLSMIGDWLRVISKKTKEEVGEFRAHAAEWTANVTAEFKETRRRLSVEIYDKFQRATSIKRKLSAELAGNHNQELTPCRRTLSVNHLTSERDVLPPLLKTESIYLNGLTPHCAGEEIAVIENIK
Test: TREK-1 Thallium (Tl+) flux assay, Method 1
Assay type: cell-based
Conditions: TREK-1 Thallium (Tl+) flux assay, Method 1
How it was run: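 Readout: Thallos fluorescence ratio, taken 25 s post-thallium relative to the pre-thallium baseline average, then converted to % inhibition. Cells were CHO-K1 stably expressing human TREK-1, dye-loaded and exposed to test compound (vehicle 0.3% DMSO) for 10 min prior to thallium stimulation.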

| pIC50 | Molecule |
| --- | --- |
| 5.80 | Cc1cc(-c2ccc(C(F)(F)F)nc2)cnc1NC(=O)c1c(Cl)cnn1C1CCN(C(=O)OC(C)(C)C)CC1 [Compound 396, tert-butyl 4-(4-chloro-5-((5-methyl-6′-(trifluoromethyl)-[3,3′-bipyridin]-6-yl)carbamoyl)-1H-pyrazol-1-yl)piperidine-1-carboxylate] |
| 5.60 | Cc1cc(OCc2ccccc2)ccc1NC(=O)c1c(Cl)cnn1C1CC2(C1)CN(C(=O)C1CC1)C2 [Compound 406, N-(4-(benzyloxy)-2-methylphenyl)-4-chloro-1-(2-(cyclopropanecarbonyl)-2-azaspiro[3.3]heptan-6-yl)-1H-pyrazole-5-carboxamide] |

Same assay, conditions: TREK-1 Thallium (Tl+) flux assay; no *^12 (Method 2) mark on these rows

| Molecule | pIC50 |
| --- | --- |
| Cc1cc(C#Cc2ccccc2)cnc1NC(=O)c1c(Cl)cnn1CC1CCOC1 (stereo not shown) [Compound 232, 4-chloro-N-(3-methyl-5-(phenylethynyl)pyridin-2-yl)-1-((tetrahydrofuran-3-yl)methyl)-1H-pyrazole-5-carboxamide] | 6.44 |
| CC(C)(C)OC(=O)N1CCN(CCn2ncc(Cl)c2C(=O)Nc2ncc(C#Cc3ccccc3)cc2F)CC1 [Compound 257, tert-butyl 4-(2-(4-chloro-5-((3-fluoro-5-(phenylethynyl)pyridin-2-yl)carbamoyl)-1H-pyrazol-1-yl)ethyl)piperazine-1-carboxylate] | 6.38 |
| Cc1cc(C#Cc2cccc(F)c2)cnc1NC(=O)c1c(Cl)cnn1C[C@H]1COCCO1 [Compound 286, (S)-1-((1,4-dioxan-2-yl)methyl)-4-chloro-N-(5-((3-fluorophenyl)ethynyl)-3-methylpyridin-2-yl)-1H-pyrazole-5-carboxamide] | 6.30 |
| Cc1cc(C#Cc2ccc(F)cc2)cnc1NC(=O)c1c(Cl)cnn1CC1CCCN(C(=O)C(C)C)C1 (stereo not shown) [Compound 272, 4-chloro-N-(5-((4-fluorophenyl)ethynyl)-3-methylpyridin-2-yl)-1-((1-isobutyrylpiperidin-3-yl)methyl)-1H-pyrazole-5-carboxamide] | 6.34 |
| Cc1cc(C#Cc2ccccc2)cnc1NC(=O)c1c(Cl)cnn1C1CCCN(C(=O)OC(C)(C)C)CC1 (stereo not shown) [Compound 277, tert-butyl 4-(4-chloro-5-((3-methyl-5-(phenylethynyl)pyridin-2-yl)carbamoyl)-1H-pyrazol-1-yl)azepane-1-carboxylate] | 6.32 |
| Cc1cc(C#Cc2ccc(F)cc2)cnc1NC(=O)c1c(Cl)cnn1[C@H]1C[C@H](NC(=O)C(C)C)C1 [Compound 209, 4-chloro-N-(5-((4-fluorophenyl)ethynyl)-3-methylpyridin-2-yl)-1-(trans-3-isobutyramidocyclobutyl)-1H-pyrazole-5-carboxamide] | 6.51 |
| 4-chloro-1-[(2s,4r)-6-(cyclopropanecarbonyl)-6-azaspiro[3.4]octan-2-yl]-N-{5-[(4-fluorophenyl)ethynyl]-3-methylpyridin-2-yl}-1H-pyrazole-5-carboxamide or 4-chloro-1-[(2r,4s)-6-(cyclopropanecarbonyl)-6-azaspiro[3.4]octan-2-yl]-N-{5-[(4-fluorophenyl)ethynyl]-3-methylpyridin-2-yl}-1H-pyrazole-5-carboxamide [Compound 362] | 6.04 |

Further lines, results first:

| pIC50 | Molecule |
| --- | --- |
| 6.15 | CC(C)(C)OC(=O)N1CCC(n2ncc(Cl)c2C(=O)Nc2ncc(C#Cc3cccs3)cc2F)CC1 [Compound 335, tert-butyl 4-(4-chloro-5-((3-fluoro-5-(thiophen-2-ylethynyl)pyridin-2-yl)carbamoyl)-1H-pyrazol-1-yl)piperidine-1-carboxylate] |
| 5.90 | Cc1cc(OCc2ccccc2)ccc1NC(=O)c1c(Cl)cnn1C1CCN(C(=O)C2COCCO2)CC1 (stereo not shown) [Compound 391, 1-(1-(1,4-dioxane-2-carbonyl)piperidin-4-yl)-N-(4-(benzyloxy)-2-methylphenyl)-4-chloro-1H-pyrazole-5-carboxamide] |
| 6.17 | COc1ncc(-c2cnc(NC(=O)c3c(Cl)cnn3C3CCN(C(=O)OC(C)(C)C)CC3)c(C)c2)cc1F [Compound 383, tert-butyl 4-(4-chloro-5-((5′-fluoro-6′-methoxy-5-methyl-[3,3′-bipyridin]-6-yl)carbamoyl)-1H-pyrazol-1-yl)piperidine-1-carboxylate] |
| 6.20 | Cc1cc(C#Cc2ccccc2)cnc1NC(=O)c1c(Cl)cnn1CCN1CCN(C(=O)OC(C)(C)C)CC1 [Compound 323, tert-butyl 4-(2-(4-chloro-5-((3-methyl-5-(phenylethynyl)pyridin-2-yl)carbamoyl)-1H-pyrazol-1-yl)ethyl)piperazine-1-carboxylate] |
| 6.24 | Cc1cc(C#Cc2ccccc2)cnc1NC(=O)c1c(Cl)cnn1[C@H]1CC[C@@H](NC(=O)OC(C)(C)C)CC1 [Compound 309, Tert-butyl (cis-4-(4-chloro-5-((3-methyl-5-(phenylethynyl)pyridin-2-yl)carbamoyl)-1H-pyrazol-1-yl)cyclohexyl)carbamate] |

Same assay, conditions: TREK-1 Thallium (Tl+) flux assay; values without footnote *12 are Method 1

| pIC50 | Molecule |
| --- | --- |
| 6.82 | CC(=O)N1CCC(n2ncc(Cl)c2C(=O)Nc2ncc(C#Cc3ccc(F)cc3)cc2C)CC1C (stereo not shown) [Compound 62, 1-(1-acetyl-2-methylpiperidin-4-yl)-4-chloro-N-(5-((4-fluorophenyl)ethynyl)-3-methylpyridin-2-yl)-1H-pyrazole-5-carboxamide] |
| 6.70 | CC1(C(=O)N2CCC(n3ncc(Cl)c3C(=O)Nc3ncc(C#Cc4ccccc4)cc3F)CC2)CCC1 [Compound 112, 4-chloro-N-(3-fluoro-5-(phenylethynyl)pyridin-2-yl)-1-(1-(1-methylcyclobutane-1-carbonyl)piperidin-4-yl)-1H-pyrazole-5-carboxamide] |
| 6.74 | Cc1cc(C#Cc2cccs2)cnc1NC(=O)c1c(Cl)cnn1C1CC2(C1)CN(C(=O)C1COCCO1)C2 (stereo not shown) [Compound 97, 1-(2-(1,4-dioxane-2-carbonyl)-2-azaspiro[3.3]heptan-6-yl)-4-chloro-N-(3-methyl-5-(thiophen-2-ylethynyl)pyridin-2-yl)-1H-pyrazole-5-carboxamide] |
| 6.59 | CC(=O)N1CCC(C)(Cn2ncc(Cl)c2C(=O)Nc2ncc(C#Cc3ccccc3)cc2C)CC1 [Compound 166, 1-((1-acetyl-4-methylpiperidin-4-yl)methyl)-4-chloro-N-(3-methyl-5-(phenylethynyl)pyridin-2-yl)-1H-pyrazole-5-carboxamide] |
| 6.55 | Cc1cc(C#Cc2ccc(F)cc2)cnc1NC(=O)c1c(Cl)cnn1C1CCN(C(=O)C(C)(C)C)CC1 [Compound 181, 4-chloro-N-(5-((4-fluorophenyl)ethynyl)-3-methylpyridin-2-yl)-1-(1-pivaloylpiperidin-4-yl)-1H-pyrazole-5-carboxamide] |
| 6.66 | CC(=O)N1CCCC(n2ncc(Cl)c2C(=O)Nc2ncc(C#Cc3ccccc3)cc2C)CC1 (stereo not shown) [Compound 131, 1-(1-acetylazepan-4-yl)-4-chloro-N-(3-methyl-5-(phenylethynyl)pyridin-2-yl)-1H-pyrazole-5-carboxamide] |
| 6.54 | CC(=O)N[C@H]1CC[C@H](n2ncc(Cl)c2C(=O)Nc2ncc(C#Cc3ccc(F)cc3)cc2C)CC1 [Compound 193, 1-(trans-4-acetamidocyclohexyl)-4-chloro-N-(5-((4-fluorophenyl)ethynyl)-3-methylpyridin-2-yl)-1H-pyrazole-5-carboxamide] |
| 6.89 | Cc1cc(C#Cc2ccccc2)cnc1NC(=O)c1c(Cl)cnn1CC1(C#N)CCN(C(=O)C(C)C)CC1 [Compound 49, 4-chloro-1-((4-cyano-1-isobutyrylpiperidin-4-yl)methyl)-N-(3-methyl-5-(phenylethynyl)pyridin-2-yl)-1H-pyrazole-5-carboxamide] |
